{"source": "patent US20060025483A1", "about": "“(-)-Hydroxycitric acid for protection against soft tissue and arterial calcification” (priority 2004, published 2006)", "key": {"[1]": {"conditions": "treated rats; cited from earlier work"}, "[2]": {"test_system": "ACE system", "test": "response of SBP to losartan challenge", "format": "in vivo, Spontaneously hypertensive rats (SHR)", "conditions": "at 6 hours; SHR fed 100 mg HCA per day as new KMgHCA", "description": "Many factors can positively influence blood pressure, e.g., diuretics, antioxidants, regulators of sympathetic/parasympathetic tone, compounds that improve insulin sensitivity and so forth. Therefore, losartan, an angiotensin-2 receptor blocker, was utilized to discover whether the ACE system was involved in the results discussed in Example 1.\nSpontaneously hypertensive rats (SHR) were placed on a diet composed of regular rat chow (60% w/w) and table sugar (40% w/w). This diet reliably elevates blood pressure in this animal model. One group received 100 mg HCA per day in the form of a new potassium-magnesium hydroxycitrate (different from that used in Example 1) via an added 5 g HCA per kg of food mix. Systolic blood pressure and body weight were tested as in Example 1 on a weekly basis.\nWhen losartan was injected, the SBP of both groups decreased. At 6 hours, the SBP were essentially the same. […] Thus, HCA appears to decrease angiotensin-2 in rats and to lower elevated SBP. Although insulin regulation likely is a factor in the blood pressure modulating effect of HCA, this evidence argues that inhibition of ACE is also important. […]"}}}
{"smiles": "O=C(O)CC(O)(C(=O)O)C(O)C(=O)O", "note": "(single isomer, unassigned; (-)) [HCA, (−)-Hydroxycitric acid]", "values": [{"measurement": "plasma levels of glucose, insulin, or free fatty acids relative to controls", "setting": "[1]", "result": "no significant differences in plasma levels of glucose, insulin, or free fatty acids"}, {"measurement": "decrease in SBP after losartan injection", "setting": "[2]", "result": "−21.7±7.0"}]}
